“Also recorded” adds a separate entry of the source.
How the values were obtained:
[1] = SOD activity, xanthine/xanthine oxidase with cytochrome C as acceptor (Example 2); format: biochemical; details: for SOD: relative to C7 (C7 = 100)
Method in brief: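 Superoxide was generated by 120 µM xanthine and 0.2 U/ml xanthine oxidase in 50 mM sodium phosphate pH 7.8 at 27 °C, with salen manganese compounds at ≥4 concentrations in duplicate.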

Rats = assay: Rat model for myocardial infarct (permanent coronary occlusion); format: in vivo; details: intravenous bolus immediately prior to surgery, 48 hr recovery
Experimental: Rats were subjected to permanent regional cardiac ischemia by surgical occlusion of the left coronary artery. […] Sham-operated rats were subjected to surgery but the suture was not tied on the coronary artery. After a 48 hr recovery period, cardiac functional parameters were measured with a Millar transducing catheter implanted into the left ventricle.

Hippocampal slices = assay: Lactic acid-induced lipid peroxidation in hippocampal slices; format: cell-based, rat; details: C7 50 μM, 30 mM lactate pH 5.0, 100 minutes
Experimental: Hippocampal slices (400 μm thick) were obtained from Sprague-Dawley rats (150-200 g) and collected in preoxygenated (95% O2/5% CO2) Krebs-Ringer phosphate medium (pH 7.4) containing NaCl 120 mM, KCl 5 mM, CaCl2 1.3 mM, MgCl2 1.2 mM, NaPhosphate 16 mM (pH 7.4) and glucose 10 mM. After 15 minutes preincubation in a water bath at 35° C. under agitation, the buffer was replaced with the same buffer (control) or a modified buffer (lactate buffer) containing NaCl 90 mM, KCl 5 mM, CaCl2 1.3 mM, MgCl2 1.2 mM, NaPhosphate 16 mM and lactic acid 30 mM (pH 5.0). […] After 100 minutes, slices were collected and homogenized in 0.9 ml of TCA 5%, whereas 0.35 ml of TCA 5% was added to 0.5 ml of the incubation medium. Lipid peroxidation was measured by adding 0.25 ml of a thiobarbituric acid reagent (TBAR) to 0.85 ml of the TCA extracts and incubating the mixture for 60 minutes at 85-93° C. Lipids were then extracted with 2×0.5 ml 1-butanol by vortexing for 10 seconds, then centrifuging at 2,000 rpm for 10 minutes. The absorbance of peroxidized lipids in the alcohol phase was measured in a spectrophotometer at 532 nm. Data were expressed as nmoles of malondialdehyde (MDA) using authentic MDA to establish a standard curve. Proteins were measured from an aliquot of the TCA extracts using the method of Bradford and the final results were calculated as nmoles MDA formed/mg protein.

dopaminergic neurons = assay: MPTP mouse model of Parkinson's disease (mazindol binding); format: in vivo
Experimental: Neuronal damage was induced in mice by injection with MPTP as described in Example 1. Where indicated, mice were also treated with intraperitoneal injections of C40 at 0.02 or 0.2 mg/kg. The integrity of the nigrostriatal dopaminergic neurons was assessed based upon ^3H-Mazindol binding to striatal membranes harvested from the brains of these mice about 1 week after MPTP administration.
The experiment was performed over a 7 day period. […] The animals were sacrificed after 7 days.

[2] = test system: Human dermal fibroblasts (HF cells); assay: Cell protection assay, glucose/glucose oxidase toxicity, XTT; format: cell-based; details: for protection against glucose and glucose oxidase: glucose oxidase 0.019 units/ml
Method in brief: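 Confluent HF fibroblasts (passage 5–6) were incubated 18 h at 37 °C with test compounds plus glucose oxidase (0.019 units/ml) in DMEM containing 4.5 g/l glucose, a reproducibly lethal level. Viability was read by XTT after 2 h as absorbance at 490 nm (reference 655 nm), relative to untreated and cell-free blanks.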

Compound	SOD activity (in words) [1]	SOD [1]	protection, left ventricular diastolic pressure (Rats)	lactate-induced increase in lipid peroxidation (Hippocampal slices)	toxicity, adverse health effects (dopaminergic neurons; 7 day test period)	number of surviving dopaminergic neurons in MPTP-treated mice (dopaminergic neurons; C7 33 mg/kg i.p. pretreatment, MPTP 40 mg/kg days 1 and 2)	number of dopaminergic neurons, C7 alone (dopaminergic neurons; C7 alone)	protection against glucose and glucose oxidase (in words) [2]	protection against glucose and glucose oxidase ([2]; 40 μM)	protection against glucose and glucose oxidase ([2]; 80 μM)	protection of dopaminergic neurons (3H-Mazindol binding to striatal membranes) (dopaminergic neurons; C40 0.02 or 0.2 mg/kg intraperitoneal)
[Cl][Mn]1[O]c2ccccc2C=NCCN=Cc2ccccc2[O]1 [Compound C7]	catalytic SOD activity	100	protection	totally abolished; also recorded: protects	absence of adverse health effects	approximately doubled	not adversely affected				
COc1cccc2c1[O][Mn]([O]C(C)=O)[O]c1c(cccc1OC)C=NCCN=C2 [Compound C32]		96						more protective than C43	significant protection	complete protection	
COc1cc(OC)c2c(c1)[O][Mn]([O]C(C)=O)[O]c1cc(OC)cc(OC)c1C=NCCN=C2 [Compound C35]		27						not cytoprotective			
COc1cccc2c1[O][Mn]([Cl])[O]c1c(cccc1OC)C=NCCN=C2 [Compound C40]		96	protection						significant protection	complete protection	protects dopaminergic neurons

Reference: patent US7582786B2, “Synthetic catalytic free radical scavengers useful as antioxidants for prevention and therapy of disease” (Eukarion Inc., priority 1996, dated 2009)
